Assay results as given in patent US20070128217A1 (priority 2003, published 2007).

What was measured:
[1] = system: recombinant human anti-SARS-CoV antibody 03-018; type: binding; set-up: Binding of antibody 03-018 to linear peptides of the N protein of SARS-CoV Urbani / Binding of antibody 03-018 to looped/cyclic peptides of the N protein of SARS-CoV Urbani: unit not given here
[2] = system: rabbit serum obtained by immunizing a rabbit with the SARS-CoV strain Frankfurt 1; type: binding; set-up: Binding of a rabbit serum to linear peptides / Binding of a rabbit serum to looped peptides / Rabbit serum linear peptides / Rabbit serum looped peptides / Binding of a rabbit serum to linear peptides of protein N of SARS-CoV Urbani (Rabbit serum linear peptides) / Binding of a rabbit serum to looped/cyclic peptides of protein N of SARS-CoV Urbani (Rabbit serum looped peptides): unit not given here
[3] = system: antibodies in sera from SARS patients (sera 1a, 1b, 2, 6, 37, 62, London, SARS-yellow, SARS-green); type: binding, human; set-up: Binding of serum 6 to linear peptides of protein X1 of SARS-CoV Urbani / Binding of serum 37 to linear peptides of protein X1 of SARS-CoV Urbani / Binding of serum 6 to looped/cyclic peptide (PEPSCAN-ELISA) / Binding of serum 37 to looped/cyclic peptide (PEPSCAN-ELISA) / Binding of serum 37 to looped/cyclic peptides of protein X1 of SARS-CoV Urbani / Binding of serum 6 to linear peptides of protein X2 / Binding of serum 37 to linear peptides of protein X2 / Binding of serum 37 to looped/cyclic peptides of protein X2 of SARS-CoV Urbani / Binding of serum 6 to linear peptides of protein M of SARS-CoV Urbani / Binding of serum 37 to linear peptides of protein M of SARS-CoV Urbani / Binding of serum 6 to looped/cyclic peptides of protein M of SARS-CoV Urbani / Binding of serum 37 to looped/cyclic peptides of protein M of SARS-CoV Urbani / Binding of serum 6 to linear peptides of protein X3 of SARS-CoV Urbani / Binding of serum 37 to linear peptides of protein X3 of SARS-CoV Urbani / Binding of serum 37 to looped/cyclic peptides of protein X3 of SARS-CoV Urbani / Binding of serum 6 to linear peptides of protein X4 of SARS-CoV Urbani / Binding of serum 37 to linear peptides of protein X4 of SARS-CoV Urbani / Binding of serum 37 to looped/cyclic peptides of protein X4 of SARS-CoV Urbani / Binding of serum 6 to linear peptides of protein X5 of SARS-CoV Urbani / Binding of serum 37 to linear peptides of protein X5 of SARS-CoV Urbani / Binding of serum 37 to looped/cyclic peptides of protein X5 of SARS-CoV Urbani / Binding of serum 6 to linear peptides of protein N of SARS-CoV Urbani / Binding of serum 37 to linear peptides of protein N of SARS-CoV Urbani / Binding of serum 6 to linear peptide (PEPSCAN-ELISA) / Binding of serum 1a to looped/cyclic peptides of protein N of SARS-CoV Urbani / Binding of serum 1b to looped/cyclic peptides of protein N of SARS-CoV Urbani / Binding of serum 2 to looped/cyclic peptides of protein N of SARS-CoV Urbani / Binding of serum 6 to looped/cyclic peptides of protein N of SARS-CoV Urbani / Binding of serum 37 to looped/cyclic peptides of protein N of SARS-CoV Urbani / Binding of serum 62 to looped/cyclic peptides of protein N of SARS-CoV Urbani / Binding of serum London to looped/cyclic peptides of protein N of SARS-CoV Urbani / Binding of serum SARS-green to looped/cyclic peptides of protein N of SARS-CoV Urbani: unit not given here
[4] = system: control sera (pooled serum of ten healthy LUMC hospital workers; commercial negative donor pooled serum from the Dutch bloodbank); type: binding, human; set-up: Binding of Control serum LUMC to linear peptides / Binding of Control serum Blood-bank to linear peptides / Binding of Control serum LUMC to looped peptides / Binding of Control Serum Blood-Bank to Looped peptides / Binding of Control serum LUMC to linear peptides of the protein M of SARS-CoV Urbani / Binding of Control serum Blood-bank to linear peptides of the protein M of SARS-CoV Urbani / Binding of Control serum LUMC to looped peptides of the protein M of SARS-CoV Urbani / Binding of Control Serum Blood-Bank to Looped peptides of the protein M of SARS-CoV Urbani: unit not given here

| Sequence | Binding of antibody 03-018 to linear peptides of the N protein of SARS-CoV Urbani [1] | Binding of antibody 03-018 to looped/cyclic peptides of the N protein of SARS-CoV Urbani [1] | Binding of a rabbit serum to linear peptides of protein N of SARS-CoV Urbani (Rabbit serum linear peptides) [2] | Binding of a rabbit serum to looped/cyclic peptides of protein N of SARS-CoV Urbani (Rabbit serum looped peptides) [2] | Binding of serum 1a to linear peptides of protein N of SARS-CoV Urbani [3] | Binding of serum 1a to looped/cyclic peptides of protein N of SARS-CoV Urbani [3] | Binding of serum 1b to linear peptides of protein N of SARS-CoV Urbani [3] | Binding of serum 1b to looped/cyclic peptides of protein N of SARS-CoV Urbani [3] | Binding of serum 2 to linear peptides of protein N of SARS-CoV Urbani [3] | Binding of serum 2 to looped/cyclic peptides of protein N of SARS-CoV Urbani [3] | Binding of serum 6 to looped/cyclic peptides of protein N of SARS-CoV Urbani [3] | Binding of serum 37 to looped/cyclic peptides of protein N of SARS-CoV Urbani [3] | Binding of serum 62 to looped/cyclic peptides of protein N of SARS-CoV Urbani [3] | Binding of serum London to looped/cyclic peptides of protein N of SARS-CoV Urbani [3] | Binding of serum SARS-green to looped/cyclic peptides of protein N of SARS-CoV Urbani [3] | Binding of serum SARS-yellow to looped/cyclic peptides of protein N of SARS-CoV Urbani [3] | Binding of Control Serum Blood-Bank to Looped peptides [4] | Binding of Control serum Blood-bank to linear peptides [4] | Binding of Control serum LUMC to linear peptides [4] | Binding of Control serum LUMC to looped peptides [4] | further results |
| --- | --- | --- | --- | --- | --- | --- | --- | --- | --- | --- | --- | --- | --- | --- | --- | --- | --- | --- | --- | --- | --- |
| YLGTGPEASLPYGAN | 0.1 | 0.2 | 0.1 | 0.6 | 0.2 | 0.4 | 0.1 | 0.3 | 0.2 | 0.4 | 0.2 | 0.8 | 0.7 | 0.5 | 0.6 | 0.6 | 0.7 | 0.6 | 0.8 | 0.7 | Binding of serum 6 to linear peptides of protein N of SARS-CoV Urbani [3]: 0.2; Binding of serum 37 to linear peptides of protein N of SARS-CoV Urbani [3]: 0.7; Binding of serum 62 to linear peptides of protein N of SARS-CoV Urbani [3]: 0.6; Binding of serum London to linear peptides of protein N of SARS-CoV Urbani [3]: 0.5; Binding of serum SARS-green to linear peptides of protein N of SARS-CoV Urbani [3]: 0.3; Binding of serum SARS-yellow to linear peptides of protein N of SARS-CoV Urbani [3]: 0.6 |
| GQQQQGQTVTKKSAA | 0.1 | 0.2 | 0.2 | 0.1 |  | 0.2 |  | 0.1 |  | 0.3 | 0.1 | 0.4 | 0.4 | 0.3 | 0.1 | 0.1 | 0.5 | 0.9 | 0.9 | 0.5 | Binding of serum 1a to linear peptide (PEPSCAN-ELISA) [3]: 0.3; Binding of serum 1b to linear peptide (PEPSCAN-ELISA) [3]: 0.1; Binding of serum 2 to linear peptide (PEPSCAN-ELISA) [3]: 0.3; Binding of serum 6 to linear peptide (PEPSCAN-ELISA) [3]: 0.3; Binding of serum 37 to linear peptide (PEPSCAN-ELISA) [3]: 0.8; Binding of serum 62 to linear peptide (PEPSCAN-ELISA) [3]: 0.8; Binding of serum London to linear peptide (PEPSCAN-ELISA) [3]: 0.5; Binding of serum SARS-green to linear peptide (PEPSCAN-ELISA) [3]: 0.1; Binding of serum SARS-yellow to linear peptide (PEPSCAN-ELISA) [3]: 0.5 |
| RPKQRRPQGLPNNTA | 0.1 | 0.2 | 0.4 | 0.4 | 0.3 | 0.3 | 0.1 | 0.1 | 0.3 | 0.3 | 0.3 | 0.5 | 0.5 | 0.4 | 0.2 | 0.3 | 0.4 | 0.8 | 0.7 | 0.5 | Binding of serum 6 to linear peptides of protein N of SARS-CoV Urbani [3]: 0.2; Binding of serum 37 to linear peptides of protein N of SARS-CoV Urbani [3]: 0.7; Binding of serum 62 to linear peptides of protein N of SARS-CoV Urbani [3]: 0.6; Binding of serum London to linear peptides of protein N of SARS-CoV Urbani [3]: 0.5; Binding of serum SARS-green to linear peptides of protein N of SARS-CoV Urbani [3]: 0.5; Binding of serum SARS-yellow to linear peptides of protein N of SARS-CoV Urbani [3]: 0.7 |
| DDQIGYYRRATRRVR | 0.1 | 0.3 |  |  | 0.3 | 0.4 | 0.1 | 0.2 | 0.3 | 0.5 | 0.4 | 0.9 | 0.7 | 0.5 | 0.4 | 0.5 | 0.8 | 1.0 | 1.0 | 0.8 | Recognition of the peptide by the rabbit serum [2]: recognized; Binding of serum 6 to linear peptides of protein N of SARS-CoV Urbani [3]: 0.3; Binding of serum 37 to linear peptides of protein N of SARS-CoV Urbani [3]: 0.7; Binding of serum 62 to linear peptides of protein N of SARS-CoV Urbani [3]: 0.9; Binding of serum London to linear peptides of protein N of SARS-CoV Urbani [3]: 0.7; Binding of serum SARS-green to linear peptides of protein N of SARS-CoV Urbani [3]: 0.6; Binding of serum SARS-yellow to linear peptides of protein N of SARS-CoV Urbani [3]: 0.6 |
